Experiments:
[1] = target: T1, Receptor-type tyrosine-protein kinase FLT3 (Homo sapiens, UniProt P36888); assay: Inhibition of FLT3 (unknown origin)
T1 sequence (P36888 whole entry): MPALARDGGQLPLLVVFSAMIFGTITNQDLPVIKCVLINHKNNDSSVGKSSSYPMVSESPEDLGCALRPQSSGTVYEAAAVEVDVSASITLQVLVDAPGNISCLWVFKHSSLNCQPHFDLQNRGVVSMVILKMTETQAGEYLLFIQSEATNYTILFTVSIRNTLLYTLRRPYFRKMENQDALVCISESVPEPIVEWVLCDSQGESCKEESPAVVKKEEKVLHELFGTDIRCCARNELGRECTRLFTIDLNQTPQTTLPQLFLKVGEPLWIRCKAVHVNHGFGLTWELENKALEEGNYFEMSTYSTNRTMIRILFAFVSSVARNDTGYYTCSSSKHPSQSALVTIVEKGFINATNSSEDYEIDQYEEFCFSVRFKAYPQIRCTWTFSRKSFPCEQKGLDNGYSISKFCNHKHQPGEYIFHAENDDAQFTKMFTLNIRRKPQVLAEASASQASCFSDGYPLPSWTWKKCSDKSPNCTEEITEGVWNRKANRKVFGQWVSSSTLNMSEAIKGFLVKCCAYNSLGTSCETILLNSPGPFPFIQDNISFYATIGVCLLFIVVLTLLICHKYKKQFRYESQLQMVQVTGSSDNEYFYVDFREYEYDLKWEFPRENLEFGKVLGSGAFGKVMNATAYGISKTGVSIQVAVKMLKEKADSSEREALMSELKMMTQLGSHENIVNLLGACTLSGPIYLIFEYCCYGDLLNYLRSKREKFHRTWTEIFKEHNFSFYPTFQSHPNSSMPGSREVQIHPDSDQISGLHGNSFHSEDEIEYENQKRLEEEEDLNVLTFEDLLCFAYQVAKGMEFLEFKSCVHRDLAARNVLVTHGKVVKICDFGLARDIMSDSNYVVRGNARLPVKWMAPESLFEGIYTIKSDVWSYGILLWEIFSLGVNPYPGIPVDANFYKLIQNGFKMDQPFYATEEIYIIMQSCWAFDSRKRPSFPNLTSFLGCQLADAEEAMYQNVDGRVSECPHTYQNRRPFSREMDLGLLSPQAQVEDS

CCRF-CEM = assay: Antiproliferative activity against human CCRF-CEM cells assessed as cell growth inhibition incubated for 48 hrs by MTT assay; type: functional
BaF3 = assay: Antiproliferative activity against TEL-BMX transformed mouse BaF3 cells assessed as inhibition of cell proliferation

| Compound | IC50 [1] | other results |
| --- | --- | --- |
| Cc1oncc1C(=O)Nc1ccc2[nH]c(-c3cc(-n4cncc4C)cc(C(F)(F)F)c3)nc2c1 | 495 nM |  |
| CCOC(=O)c1cnc2c(-c3nc4ccccc4s3)c(NC)nn2c1O |  | GI50 (CCRF-CEM): 16300 nM |
| C=CC(=O)Nc1cc(-n2c(=O)ccc3cnc4ccc(-c5ccc(NS(C)(=O)=O)cc5)cc4c32)ccc1C |  | IC50 (BaF3): 25 nM |
| Cc1oncc1C(=O)Nc1ccc2[nH]c(-c3cc(N4CCOCC4)cc(C(F)(F)F)c3)nc2c1 | 495 nM |  |
| Cc1oncc1C(=O)Nc1ccc2[nH]c(-c3cc(-n4ccnc4C)cc(C(F)(F)F)c3)nc2c1 | 495 nM |  |
| Cc1cn(-c2cc(-c3nc4cc(NC(=O)c5cnoc5C)ccc4[nH]3)cc(C(F)(F)F)c2)cn1 | 495 nM |  |
| Cc1oncc1C(=O)Nc1ccc2[nH]c(-c3cnn(-c4ccccc4)c3C(F)(F)F)nc2c1 | 495 nM |  |

From ChEMBL document CHEMBL5620431, “2,4-Diaryl-pyrimido[1,2-a]benzimidazole derivatives as novel anticancer agents endowed with potent anti-leukemia activity: Synthesis, biological evaluation and kinase profiling” (Eur J Med Chem, 2023)
